Reference: patent US11083724B2, “Rimegepant for CGRP related disorders” (Biohaven Pharmaceutical Holding Company Ltd., priority 2018, dated 2021)

Experiments:
[1] = tested on: subjects with Acute Migraines; assay: Study 302 (BHV3000-302, NCT03237845): Phase 3 double-blind placebo-controlled trial, rimegepant 75 mg tablet, acute treatment of migraine; assay type: in vivo, human; conditions: for Percent (%) difference of Patients Pain Free: Rimegepant versus Placebo: no rescue meds, Kaplan-Meier estimates; for Freedom from MBS at 2 hours / Pain Freedom (pain-free) at 2 hours: N = 537
Procedure: Clinical Trial—BHV3000-302: Phase 3: Double-Blind, Randomized, Placebo-Controlled, Safety and Efficacy Trial of BHV-3000 (Rimegepant) for the Acute Treatment of Migraine (ClinicalTrials.gov Identifier: NCT03237845) A phase 3 clinical study was conducted with 1503 participants, as follows. The purpose of this study is to compare the efficacy of BHV-3000 (rimegepant) versus placebo in subjects with Acute Migraines Study Design • Study Type: Interventional (Clinical Trial) • Actual Enrollment: 1503 participants • Allocation: Randomized • Intervention Model: Parallel Assignment • Intervention Model Description: Double-blind to Sponsor, Investigator and Subject • Masking: Triple (Participant, Care Provider, Investigator) • Masking Description: Double-blind to Sponsor, Investigator and Subject • Primary Purpose: Treatment • Official Title: BHV3000-302: Phase 3: Double-Blind, Randomized, Placebo-Controlled, Safety and Efficacy Trial of BHV-3000 (Rimegepant) for the Acute Treatment of Migraine • Actual Study Start Date: Jul. 26, 2017 • Primary Completion Date: Jan. 25, 2018 • Study Completion Date: Jan. 31, 2018 Arms and Interventions Outcome Measures Primary Outcome Measures: • 1. Pain Freedom of rimegepant (75 mg tablet) compared with placebo in the acute treatment of migraine will be measured using the number of evaluable subjects that report no pain at 2 hours post-dose. [Time Frame: Two hours post dose] • Pain will be measured on a 4 point Likert scale (0=none, 1=mild, 2=moderate, 3=severe) • 2. Freedom from the most bothersome symptom (MBS) of rimegepant (75 mg tablet) compared with placebo will be measured using the number of evaluable subjects that report the absence of their MBS at 2 hours post-dose. [Time Frame: Two hours post dose] • The MBS (nausea, phonophobia or photophobia) will measured using a binary scale (0=absent, 1=present). Secondary Outcome Measures: • 1. […] [Time Frame: 2 hours-24 hours post-dose] • Sustained Pain Freedom as measured by a 4 point numeric rating scale (None, Mild, Moderate, Severe) • 2. Rimegepant (75 mg tablet) compared to placebo by tabulating the number of subjects that report the absence of photophobia at 2 hours post-dose in the subset of subjects that reported the presence of photophobia at headache baseline. [Time Frame: 2 hours post-dose] • Freedom from Photophobia • 3. Rimegepant (75 mg tablet) compared to placebo by tabulating the number of subjects that report the absence of phonophobia at 2 hours post-dose in the subset of subjects that reported the presence of phonophobia at headache baseline. [Time Frame: 2 hours post-dose] • Freedom from Phonophobia • 4. To measure rimegepant (75 mg tablet) compared to placebo on Pain Relief, at 2 hours post-dose, that report a pain level of moderate or severe at baseline and then report a pain level of none or mild. [Time Frame: 2 hours post-dose] • Pain Relief as measured by a 4 point numeric rating scale (None, Mild, Moderate, Severe) • 5. Freedom from Nausea will by tabulating the number of subjects that report the absence of nausea at 2 hours post-dose in the subset of subjects that reported the presence of nausea at headache baseline. [Time Frame: 2 hours post-dose] • Freedom from Nausea • 6. To measure rimegepant (75 mg tablet) compared to placebo on the probability of requiring rescue medication will be assessed using the number of subjects that take rescue medication within […] administration of study medication (BHV3000 or placebo). [Time Frame: up to 24 hours post-dose] • Requiring Rescue Medication • 7. […] [Time Frame: 2 hours-48 hours post-dose] • Sustained Pain Freedom as measured by a 4 point numeric rating scale (None, Mild, Moderate, Severe) • 8. […] [Time Frame: 2 hours-24 hours post-dose] • Sustained Pain Relief as measured by a 4 point numeric rating scale (None, Mild, Moderate, Severe) • 9. […] [Time Frame: 2 hours-48 hours post-dose] • Sustained Pain Relief as measured by a 4 point numeric rating scale (None, Mild, Moderate, Severe) • 10. […]

[2] = tested on: subjects with Acute Migraines; assay: Pooled adverse event and liver function test data, Studies 301, 302 and 303; assay type: in vivo, human; conditions: for bilirubin elevations > 2 × ULN: across Studies 301, 302 and 303
[3] = Study 302, single 75 mg tablet, listed as rimegepant
[4] = pooled Studies 301, 302, 303, n = 1,771
[5] = pooled Studies 301, 302, 303, n = 1,771, AST elevation, not drug-related
[6] = pooled Studies 301, 302, 303, within 48 hours post-dose, n = 1,771

## N[C@@H]1c2cccnc2[C@H](OC(=O)N2CCC(n3c(=O)[nH]c4ncccc43)CC2)CC[C@H]1c1cccc(F)c1F [Rimegepant, [(5S,6S,9R)-5-amino-6-(2,3-difluorophenyl)-6,7,8,9-tetrahydro-5H-cyclohepta[b]pyridin-9-yl] 4-(2-oxo-3H-imidazo[4,5-b]pyridin-1-yl)piperidine-1-carboxylate]
[1]; Study 302
  SAEs related to the study drug: No SAEs
  bilirubin elevations greater than 2 times ULN: no bilirubin elevations
  transaminase level greater than 3 times ULN: No subject
[1]; Study 302, 8/543
  AE urinary tract infection: 1.5%
[1]; Study 302, 10/543
  AE nausea: 1.8%
[1]; Study 302, 13/543
  Serum ALT or AST levels greater than ULN: 2.4%
[1]; Study 302, 2 hours post single dose 75 mg
  Percent (%) difference of Patients Pain Free: Rimegepant versus Placebo: 7%
[1]; Study 302, 3 hours post single dose 75 mg
  Percent (%) difference of Patients Pain Free: Rimegepant versus Placebo: 13%
[1]; Study 302, 4 hours post single dose 75 mg
  Percent (%) difference of Patients Pain Free: Rimegepant versus Placebo: 19%
[1]; Study 302, 6 hours post single dose 75 mg
  Percent (%) difference of Patients Pain Free: Rimegepant versus Placebo: 22%
[1]; Study 302, 8 hours post single dose 75 mg
  Percent (%) difference of Patients Pain Free: Rimegepant versus Placebo: 19%
[1]; Study 302, P<0.0001
  functional disability: patients achieving normal function at 2 hours versus placebo: greater proportion
[1]; Study 302, back pain
  Serious AEs (SAEs), subjects: 1 subject
[1]; Study 302, single 75 mg tablet
  Free from MBS at 2 hours, subjects [n/N]: [202/537]
  Nausea-free at 2 hours: 48.1%
  Nausea-free at 2 hours, subjects [n/N]: [171/355]
  Pain relief at 2 hours: 58.1%
  Pain relief at 2 hours, subjects [n/N]: [312/537]
  Pain-free at 2 hours, subjects [n/N]: [105/537]
  Phonophobia-free at 2 hours: 36.7%
  Phonophobia-free at 2 hours, subjects [n/N]: [133/362]
  Photophobia-free at 2 hours: 37.4%
  Photophobia-free at 2 hours, subjects [n/N]: [183/489]
  Sustained pain relief, 2-24 hours: 42.6%
  Sustained pain relief, 2-24 hours, subjects [n/N]: [229/537]
  Freedom from MBS at 2 hours: 37.6%
  Pain Freedom (pain-free) at 2 hours: 19.6%
[1]; [3]
  Freedom from MBS at 2 hours: 37.6%
  Pain Freedom (pain-free) at 2 hours: 19.6%
  Pain relief at 2 hours: 58.1%
[1]; Study 302, single dose, no rescue medication, P<0.0001
  sustained pain relief from 2 through 48 hours postdose versus placebo: superiority versus placebo
[1]; Study 302, single dose, no rescue medication, P=0.0181
  sustained pain freedom from 2 through 48 hours postdose versus placebo: superiority versus placebo
[2]
  bilirubin elevations > 2 × ULN: *AST/ALT Categories are not mutually exclusive; No bilirubin elevations > 2 × ULN across Studies 301, 302 and 303
[2]; listed as rimegepant
  bilirubin elevations > 2 × ULN: no patients
[2]; pooled Studies 301, 302, 303
  drug-related Serious Adverse Events (SAEs): **No drug-related Serious Adverse Events (SAEs). 2 of the subjects with SAE in rimegepant group and 1 in placebo group had not been dosed before onset of SAE.
[2]; [4]
  ALT or AST >3 × ULN, number of subjects: 2
  ALT or AST >3 × ULN, percent of subjects: (0.1%)
  ALT or AST >20 × ULN, number of subjects: 0
  ALT or AST >ULN, number of subjects: 48
  ALT or AST >ULN, percent of subjects: (2.7%)
  SAEs, number of patients: 3
  SAEs, percent of patients: 0.2%
[2]; [5]
  ALT or AST >5 × ULN, number of subjects: 1
  ALT or AST >5 × ULN, percent of subjects: (0.06%)^2
[2]; [6]
  AE Nausea, number of patients: 26
  AE Nausea, percent of patients: 1.5%
  AE UTI, number of patients: 21
  AE UTI, percent of patients: 1.2%
  ≥1 On-Study AE, number of patients: 252
  ≥1 On-Study AE, percent of patients: 14.2%
